From patent publication US9605017B2, “2′, 5′-dideoxy-5-fluorouridine derivatives having cytotoxic activity, a process for the manufacture thereof and application thereof” (ADAM MICKIEWICZ UNIVERSITY, priority 2014, dated 2017)
≈ marks a conversion by molar mass, not a printed value. Where “and” joins values, the source holds several entries; their conditions need not be identical. Equal entries are not always repeated. Where two headings read alike, the source gives them in different places.

Experiments:
MCF-7 (breast cancer) = assay: Cytotoxicity test with sulphorhodamine B, 72 h, MCF-7 line; settings: for IC50: Homo sapiens; for higher activity than 5AddFU, breast cancer cells: relative to 5AddFU; for higher activity than 5FU, breast cancer cells: relative to 5FU; for higher activity than 5FdU, breast cancer cells: relative to 5FdU
Procedure: (§1) Cytotoxic activity tests were performed using the following cancer cell lines: MCF-7 (breast cancer), HeLa (cervical cancer) A549 (lung cancer) and KB (nasopharynx cancer) obtained from ECACC (European Collection of Cell Cultures).
(§2) Cytotoxicity tests were carried out using a standard procedure with sulphorhodamine B. They involved incubation of the cancer cell lines in the logarithmic growth phase for 72 hours with the compound tested and, subsequently, spectrophotometric determination of the degree of cell growth inhibition using adsorption of a dye (sulphorhodamine B) which binds cellular proteins.
(§3) Cells of the cell line tested in the logarithmic growth phase were seeded onto 24-well plates in a quantity of 20,000 cells/2 mL of the growth medium per well and, subsequently, incubated in an incubator at 37° C., in the 5% CO2 atmosphere for 24 hours.
(§4) Solutions of the test compounds were prepared in DMSO in the following concentration range: 0.05; 0.1; 0.5; 1; 5; 10; 50; 100; 500 μM.
(§5) The cells of the lines tested were treated with the solutions of the test compounds in a laminar-flow chamber which ensured sterile working conditions according to the following procedure: the first three wells were used as a control: they contained 20 μL of DMSO only; successive solutions of the test compound were added to subsequent wells (20 μL), starting with the lowest concentration (three wells for each concentration level). Subsequently, the plates were placed in an incubator for 72 hours.
(§6) After the end of incubation, the adhered cells were fixed by adding 500 μL of cold (4° C.) 50% trichloroacetic acid (TCA) and incubated at 4° C. for 1 hour. Subsequently, each well was rinsed with sterile water and dried. The operation was repeated five times. The fixed cells were stained for 30 minutes by adding 500 μL of 0.4% of a dye solution (sulphorhodamine B) dissolved in 1% acetic acid. Any unbound dye was removed by decanting it from the plate, and the cells were washed 4 times with 1% acetic acid. Subsequently, the plates were dried in air for approx. 5 minutes. Any unbound dye was dissolved by adding 1500 μL of 10 mM Tris-base buffer (trishydroxymethylaminomethane) to each well and shaken using an orbital shaker for 5 minutes. Subsequently, 200 μL of solution from each well was transferred to each of two wells on a new 96-well plate and absorption of the solutions was determined spectrophotometrically at a wavelength of 490-530 nm using a plate reader. Percentage inhibition of cell growth by the test compound was calculated assuming the absorption of the control solution as 100%.
(§7) Cytotoxicity tests for the other compounds and cell lines were performed following an identical procedure.
(§8) Depending on the type of the cell line, the following growth media were used: • the MCF-7 line was grown in Dulbecco's Modified Eagle's Medium (DME) from Sigma (cat. no. D5796) • the HeLa, A549 and KB lines were grown in RPMI-1640 Medium from Sigma (cat. no. R8758).
(§9) IC50 values, being concentration of a compound needed to obtain 50% inhibition of cell growth, were determined for all the derivatives tested.
(§10) To enable comparison, identical tests were performed using known cytotoxic agents: 5-fluoro-2′-deoxyuridine, 5-fluorouracil and 5′-azido-2′,5′-dideoxy-5-fluorouridine.
(§11) The values are average results of three independent determinations.

HeLa (cervical cancer) = assay: Cytotoxicity test with sulphorhodamine B, 72 h, HeLa line; settings: for IC50: Homo sapiens, HeLa; for activity compared to 5FU, cervical cancer cells: relative to 5FU
Procedure: as §1, §2, §3, §4, §5, §6, §7, §8, §9, §10, §11

KB (nasopharynx cancer) = assay: Cytotoxicity test with sulphorhodamine B, 72 h, KB line; settings: read-out: Cytotoxic activity, IC50 KB (nasopharynx cancer)
Procedure: as §1, §2, §3, §4, §5, §6, §7, §8, §9, §10, §11

A549 (lung cancer) = assay: Cytotoxicity test with sulphorhodamine B, 72 h, A549 line; settings: Homo sapiens
Procedure: as §1, §2, §3, §4, §5, §6, §7, §8, §9, §10, §11

[1] = system: MCF-7, HeLa, A549 and KB cancer cell lines; assay: Cytotoxic activity tests, overall statement over the four cancer cell lines; settings: in words
Procedure: as §1, §2, §9, §10

[2] = system: mouse tumour cells (S-180 line); settings: at concentrations as high as 400 μM; cited from earlier work
[3] = MCF7, 72 h, read-out: Cytotoxic activity, IC50 MCF-7 line (breast cancer)
[4] = MCF7, read-out: Cytotoxic activity class, MCF-7 line (breast cancer)
[5] = 72 h, read-out: Cytotoxic activity, IC50 HeLa (cervical cancer)
[6] = read-out: Cytotoxic activity class, HeLa (cervical cancer)
[7] = A549, 72 h, read-out: Cytotoxic activity, IC50 A549 (lung cancer)
[8] = A549, read-out: Cytotoxic activity class, A549 (lung cancer)

| SMILES | IC50 (MCF-7 (breast cancer); [3]) | IC50 (MCF-7 (breast cancer); [4]) [µg/mL] | IC50 (HeLa (cervical cancer); [5]) | IC50 (HeLa (cervical cancer); [6]) [µg/mL] | IC50 (KB (nasopharynx cancer)) | IC50 (A549 (lung cancer); [7]) | IC50 (A549 (lung cancer); [8]) [µg/mL] | higher activity than 5AddFU, breast cancer cells (MCF-7 (breast cancer)) [fold] | higher activity than 5FU, breast cancer cells (MCF-7 (breast cancer)) [fold] | higher activity than 5FdU, breast cancer cells (MCF-7 (breast cancer)) [fold] | activity compared to 5FU, cervical cancer cells (HeLa (cervical cancer)) | Cytotoxic activity, overall verbal grade [1] | Cytotoxic activity, overall verbal grade ([1]; listed as 5FU) | Cytotoxic activity, overall verbal grade ([1]; listed as 5FdU) | cell growth inhibition [2] [%] | Cytotoxic activity, overall verbal grade ([1]; listed as 5AddFU) |
| --- | --- | --- | --- | --- | --- | --- | --- | --- | --- | --- | --- | --- | --- | --- | --- | --- |
| C=CC1C[N@@]2CCC1C[C@@H]2[C@@H](OCc1cn(CC2OC(n3cc(F)c(=O)[nH]c3=O)CC2O)nn1)c1ccnc2ccc(OC)cc12 (stereo partly shown) [PQD5AFU, 5-Fluoro-1-(4-hydroxy-5-{4-[(6-methoxy-quinolin-4-yl)-(5-vinyl-1-aza-bicyclo[2.2.2]oct-2-yl)-methoxymethyl]-[1,2,3]triazol-1-ylmethyl}-tetrahydrofuran-2-yl)-1H-pyrimidine-2,4-dione] | 16 µg/mL and 25.2 µM | 4 to 30 (≈ 6.31 to 47.3 µM) | 19.1 µg/mL and 30.1 µM | 4 to 30 (≈ 6.31 to 47.3 µM) | 19.5 µg/mL and 30.8 µM | 19.7 µg/mL and 31.1 µM | 4 to 30 (≈ 6.31 to 47.3 µM) | – | – | – | – | – | – | – | – | – |
| O=c1[nH]c(=O)n(C2CC(O)C(Cn3cc(C4CN5CCC4C[C@@H]5[C@@H](O)c4ccnc5ccccc45)nn3)O2)cc1F (stereo partly shown) [CN5AFU, 5-Fluoro-1-(4-hydroxy-5-{4-[6-(hydroxy-quinolin-4-yl-methyl)-1-aza-bicyclo[2.2.2]oct-3-yl]-[1,2,3]triazol-1-ylmethyl}-tetrahydrofuran-2-yl)-1H-pyrimidine-2,4-dione] | 2.8 µg/mL and 4.97 µM | < 4 | 3.1 µg/mL and 5.5 µM | < 4 | 2.9 µg/mL and 5.15 µM | 3.1 µg/mL and 5.5 µM | < 4 | 3 | 1.4 | 1.6 | comparable activity | – | – | – | – | – |
| O=c1[nH]cc(F)c(=O)[nH]1 [5-fluorouracil, reference compound] | 2.37 µg/mL and 18.2 µM | < 4 | 2.73 µg/mL and 21 µM | < 4 | 2.86 µg/mL and 22 µM | 2.78 µg/mL and 21.4 µM | < 4 | – | – | – | – | medium-activity | Medium cytotoxic activity | – | – | – |
| COc1ccc2nccc([C@H](O)[C@H]3CC4CCN3CC4c3cn(CC4OC(n5cc(F)c(=O)[nH]c5=O)CC4O)nn3)c2c1 (stereo partly shown) [QD5AFU, 5-Fluoro-1-[4-hydroxy-5-(4-{6-[hydroxy-(6-methoxy-quinolin-4-yl)-methyl]-1-aza-bicyclo[2.2.2]oct-3-yl}-[1,2,3]triazol-1-ylmethyl)-tetrahydrofuran-2-yl]-1H-pyrimidine-2,4-dione] | 6.1 µg/mL and 10.3 µM | 4 to 30 (≈ 6.74 to 50.5 µM) | 7.3 µg/mL and 12.3 µM | 4 to 30 (≈ 6.74 to 50.5 µM) | 8.9 µg/mL and 15 µM | 8 µg/mL and 13.5 µM | 4 to 30 (≈ 6.74 to 50.5 µM) | – | – | – | – | – | – | – | – | – |
| O=c1[nH]c(=O)n(C2CC(O)C(Cn3cc(C4C[N@@]5CCC4C[C@H]5[C@H](O)c4ccnc5ccccc45)nn3)O2)cc1F (stereo partly shown) [CD5AFU, 5-Fluoro-1-(4-hydroxy-5-{4-[6-(hydroxy-quinolin-4-yl-methyl)-1-aza-bicyclo[2.2.2]oct-3-yl]-[1,2,3]triazol-1-ylmethyl}-tetrahydrofuran-2-yl)-1H-pyrimidine-2,4-dione] | 11.4 µg/mL and 20.2 µM | 4 to 30 (≈ 7.1 to 53.2 µM) | 13 µg/mL and 23.1 µM | 4 to 30 (≈ 7.1 to 53.2 µM) | 15 µg/mL and 26.6 µM | 15.2 µg/mL and 27 µM | 4 to 30 (≈ 7.1 to 53.2 µM) | – | – | – | – | – | – | – | – | – |
| O=c1[nH]c(=O)n([C@H]2C[C@H](O)[C@@H](CO)O2)cc1F [5-fluoro-2′-deoxyuridine, reference compound] | 2.81 µg/mL and 11.4 µM | < 4 | 3.2 µg/mL and 13 µM | < 4 | 3.37 µg/mL and 13.7 µM | 3.3 µg/mL and 13.4 µM | < 4 | – | – | – | – | medium-activity | – | Medium cytotoxic activity | – | – |
| COc1ccc2nccc([C@@H](O)[C@@H]3CC4CC[N@]3CC4c3cn(CC4OC(n5cc(F)c(=O)[nH]c5=O)CC4O)nn3)c2c1 (stereo partly shown) [QN5AFU, 5-Fluoro-1-[4-hydroxy-5-(4-{6-[hydroxy-(6-methoxy-quinolin-4-yl)-methyl]-1-aza-bicyclo[2.2.2]oct-3-yl}-[1,2,3]triazol-1-ylmethyl)-tetrahydrofuran-2-yl]-1H-pyrimidine-2,4-dione] | 12 µg/mL and 20.2 µM | 4 to 30 (≈ 6.74 to 50.5 µM) | 12 µg/mL and 20.2 µM | 4 to 30 (≈ 6.74 to 50.5 µM) | 12.6 µg/mL and 21.2 µM | 16 µg/mL and 26.9 µM | 4 to 30 (≈ 6.74 to 50.5 µM) | – | – | – | – | – | – | – | – | – |
| C=CC1C[N@@]2CCC1C[C@@H]2[C@@H](OCc1cn(CC2OC(n3cc(F)c(=O)[nH]c3=O)CC2O)nn1)c1ccnc2ccccc12 (stereo partly shown) [PCN5AFU, 5-Fluoro-1-(4-hydroxy-5-{4-[quinolin-4-yl-(5-vinyl-1-aza-bicyclo[2.2.2]oct-2-yl)-methoxymethyl]-[1,2,3]triazol-1-ylmethyl}-tetrahydrofuran-2-yl)-1H-pyrimidine-2,4-dione] | 2.4 µg/mL and 3.98 µM | < 4 | 2.7 µg/mL and 4.47 µM | < 4 | 2.4 µg/mL and 3.98 µM | 2.7 µg/mL and 4.47 µM | < 4 | 3 | 1.4 | 1.6 | comparable activity | – | – | – | – | – |
| C=CC1C[N@@]2CCC1C[C@H]2[C@H](OCc1cn(CC2OC(n3cc(F)c(=O)[nH]c3=O)CC2O)nn1)c1ccnc2ccccc12 (stereo partly shown) [PCD5AFU, 5-Fluoro-1-(4-hydroxy-5-{4-[quinolin-4-yl-(5-vinyl-1-aza-bicyclo[2.2.2]oct-2-yl)-methoxymethyl]-[1,2,3]triazol-1-ylmethyl}-tetrahydrofuran-2-yl)-1H-pyrimidine-2,4-dione] | 11.8 µg/mL and 19.6 µM | 4 to 30 (≈ 6.63 to 49.7 µM) | 18.8 µg/mL and 29.8 µM | 4 to 30 (≈ 6.63 to 49.7 µM) | 17.5 µg/mL and 29 µM | 17.8 µg/mL and 29.5 µM | 4 to 30 (≈ 6.63 to 49.7 µM) | – | – | – | – | – | – | – | – | – |
| C=CC1C[N@@]2CCC1C[C@H]2[C@H](OCc1cn(CC2OC(n3cc(F)c(=O)[nH]c3=O)CC2O)nn1)c1ccnc2ccc(OC)cc12 (stereo partly shown) [PQN5AFU, 5-Fluoro-1-(4-hydroxy-5-{4-[(6-methoxy-quinolin-4-yl)-(5-vinyl-1-aza-bicyclo[2.2.2]oct-2-yl)-methoxymethyl]-[1,2,3]triazol-1-ylmethyl}-tetrahydrofuran-2-yl)-1H-pyrimidine-2,4-dione] | 27 µg/mL and 42.6 µM | 4 to 30 (≈ 6.31 to 47.3 µM) | 29 µg/mL and 45.8 µM | 4 to 30 (≈ 6.31 to 47.3 µM) | 31 µg/mL and 48.9 µM | 29.4 µg/mL and 46.4 µM | 4 to 30 (≈ 6.31 to 47.3 µM) | – | – | – | – | – | – | – | – | – |
| [N-]=[N+]=NC[C@H]1O[C@@H](n2cc(F)c(O)nc2=O)C[C@@H]1O [5′-azido-2′,5′-dideoxy-5-fluorouridine, reference compound] | 7.4 µg/mL and 27.3 µM | 4 to 30 (≈ 14.7 to 111 µM) | 7.8 µg/mL and 28.8 µM | 4 to 30 (≈ 14.7 to 111 µM) | 7 µg/mL and 25.8 µM | 7 µg/mL and 25.8 µM | 4 to 30 (≈ 14.7 to 111 µM) | – | – | – | – | – | – | – | 100 | Medium cytotoxic activity |
